Test system: patients with recurrent or refractory AML
Experiment: AML dose-escalation study: safety and tolerability (AEs, DLTs)
Assay type: in vivo, human
Text: Conducted at three centres in the USA and one in Canada. Dose escalation followed a conventional 3 + 3 design. […] In the first cohort, dosing between the first and subsequent patients was staggered with a 7-day interval. Dose-escalation decisions were based on the safety and tolerability data from ≥3 evaluable patients (or six if one of the first three patients experienced a dose-limiting toxicity [DLT]).
AZD1208 could be escalated by up to 100% in subsequent cohorts until one DLT was observed, after which succeeding doses were escalated by up to 50%.
In the case of a DLT, the cohort was expanded to six patients. If a DLT occurred in ≥2 patients within a cohort, the dose was determined to be a non-tolerated dose (NTD) and dose escalation was stopped.
Grade 3 or 4 toxicities not attributable to the disease or disease-related processes under investigation, and occurring before the end of Cycle 1, were considered DLTs.
The NTD was identified as the dose at which ≥2 DLTs occurred in a given cohort.

N[C@@H]1CCCN(c2c(/C=C3\SC(=O)NC3=O)cccc2-c2ccccc2)C1 [AZD1208]
Abdominal pain (all-grade AE) (120 mg, n = 4): 1 (25.0) n (%) | Asthenia (all-grade AE) (120 mg, n = 4): 1 (25.0) n (%) | Chills (all-grade AE) (120 mg, n = 4): 0 n (%) | Cough (all-grade AE) (120 mg, n = 4): 0 n (%) | Decreased appetite (all-grade AE) (120 mg, n = 4): 0 n (%) | Dehydration (all-grade AE) (120 mg, n = 4): 0 n (%) | Diarrhoea (all-grade AE) (120 mg, n = 4): 1 (25.0) n (%) | Dyspnoea (all-grade AE) (120 mg, n = 4): 0 n (%) | Fatigue (all-grade AE) (120 mg, n = 4): 1 (25.0) n (%) | Febrile neutropenia (all-grade AE) (120 mg, n = 4): 3 (75.0) n (%) | Headache (all-grade AE) (120 mg, n = 4): 0 n (%) | Hyperglycaemia (all-grade AE) (120 mg, n = 4): 0 n (%) | Hypocalcaemia (all-grade AE) (120 mg, n = 4): 1 (25.0) n (%) | Hypokalaemia (all-grade AE) (120 mg, n = 4): 0 n (%) | Hypomagnesaemia (all-grade AE) (120 mg, n = 4): 1 (25.0) n (%) | Hypophosphataemia (all-grade AE) (120 mg, n = 4): 1 (25.0) n (%) | Hypotension (all-grade AE) (120 mg, n = 4): 1 (25.0) n (%) | Maculopapular rash (all-grade AE) (120 mg, n = 4): 0 n (%) | Nausea (all-grade AE) (120 mg, n = 4): 3 (75.0) n (%) | Oedema peripheral (all-grade AE) (120 mg, n = 4): 1 (25.0) n (%) | Patients with any AE (all-grade AE) (120 mg, n = 4): 3 (75.0) n (%) | Pneumonia (all-grade AE) (120 mg, n = 4): 1 (25.0) n (%) | Pyrexia (all-grade AE) (120 mg, n = 4): 0 n (%) | Rash (all-grade AE) (120 mg, n = 4): 0 n (%) | Renal failure acute (all-grade AE) (120 mg, n = 4): 0 n (%) | Stomatitis (all-grade AE) (120 mg, n = 4): 1 (25.0) n (%) | Vision blurred (all-grade AE) (120 mg, n = 4): 1 (25.0) n (%) | Vomiting (all-grade AE) (120 mg, n = 4): 2 (50.0) n (%) | Patients in whom AZD1208 was discontinued as a result of SAEs and AEs (240 mg (bacteremia, peristomal ulcer)): 1 n | Abdominal pain (all-grade AE) (240 mg, n = 6): 0 n (%) | Asthenia (all-grade AE) (240 mg, n = 6): 0 n (%) | Chills (all-grade AE) (240 mg, n = 6): 1 (16.7) n (%) | Cough (all-grade AE) (240 mg, n = 6): 1 (16.7) n (%) | DLT detail, action taken (240 mg, n = 6): Peristomal ulcer, drug permanently discontinued | Decreased appetite (all-grade AE) (240 mg, n = 6): 1 (16.7) n (%) | Dehydration (all-grade AE) (240 mg, n = 6): 0 n (%) | Diarrhoea (all-grade AE) (240 mg, n = 6): 1 (16.7) n (%) | Dyspnoea (all-grade AE) (240 mg, n = 6): 1 (16.7) n (%) | Fatigue (all-grade AE) (240 mg, n = 6): 1 (16.7) n (%) | Febrile neutropenia (all-grade AE) (240 mg, n = 6): 2 (33.3) n (%) | Headache (all-grade AE) (240 mg, n = 6): 0 n (%) | Hyperglycaemia (all-grade AE) (240 mg, n = 6): 0 n (%) | Hypocalcaemia (all-grade AE) (240 mg, n = 6): 1 (16.7) n (%) | Hypokalaemia (all-grade AE) (240 mg, n = 6): 0 n (%) | Hypomagnesaemia (all-grade AE) (240 mg, n = 6): 1 (16.7) n (%) | Hypophosphataemia (all-grade AE) (240 mg, n = 6): 0 n (%) | Hypotension (all-grade AE) (240 mg, n = 6): 2 (33.3) n (%) | Maculopapular rash (all-grade AE) (240 mg, n = 6): 1 (16.7) n (%) | Nausea (all-grade AE) (240 mg, n = 6): 4 (66.7) n (%) | Oedema peripheral (all-grade AE) (240 mg, n = 6): 1 (16.7) n (%) | Patients with any AE (all-grade AE) (240 mg, n = 6): 6 (100.0) n (%) | Pneumonia (all-grade AE) (240 mg, n = 6): 3 (50.0) n (%) | Pyrexia (all-grade AE) (240 mg, n = 6): 0 n (%) | Rash (all-grade AE) (240 mg, n = 6): 0 n (%) | Renal failure acute (all-grade AE) (240 mg, n = 6): 1 (16.7) n (%) | Stomatitis (all-grade AE) (240 mg, n = 6): 1 (16.7) n (%) | Vision blurred (all-grade AE) (240 mg, n = 6): 0 n (%) | Vomiting (all-grade AE) (240 mg, n = 6): 3 (50.0) n (%) | Patients in whom AZD1208 was discontinued as a result of SAEs and AEs (480 mg (vomiting, gingival pain)): 2 n | Abdominal pain (all-grade AE) (480 mg, n = 6): 1 (16.7) n (%) | Asthenia (all-grade AE) (480 mg, n = 6): 1 (16.7) n (%) | Chills (all-grade AE) (480 mg, n = 6): 0 n (%) | Cough (all-grade AE) (480 mg, n = 6): 1 (16.7) n (%) | DLT detail, action taken (480 mg, n = 6): Fatigue, drug interrupted | Decreased appetite (all-grade AE) (480 mg, n = 6): 0 n (%) | Dehydration (all-grade AE) (480 mg, n = 6): 0 n (%) | Diarrhoea (all-grade AE) (480 mg, n = 6): 3 (50.0) n (%) | Dyspnoea (all-grade AE) (480 mg, n = 6): 2 (33.3) n (%) | Fatigue (all-grade AE) (480 mg, n = 6): 4 (66.7) n (%) | Febrile neutropenia (all-grade AE) (480 mg, n = 6): 0 n (%) | Headache (all-grade AE) (480 mg, n = 6): 3 (50.0) n (%) | Hyperglycaemia (all-grade AE) (480 mg, n = 6): 2 (33.3) n (%) | Hypocalcaemia (all-grade AE) (480 mg, n = 6): 1 (16.7) n (%) | Hypokalaemia (all-grade AE) (480 mg, n = 6): 3 (50.0) n (%) | Hypomagnesaemia (all-grade AE) (480 mg, n = 6): 2 (33.3) n (%) | Hypophosphataemia (all-grade AE) (480 mg, n = 6): 2 (33.3) n (%) | Hypotension (all-grade AE) (480 mg, n = 6): 2 (33.3) n (%) | Maculopapular rash (all-grade AE) (480 mg, n = 6): 0 n (%) | Nausea (all-grade AE) (480 mg, n = 6): 1 (16.7) n (%) | Oedema peripheral (all-grade AE) (480 mg, n = 6): 3 (50.0) n (%) | Patients with any AE (all-grade AE) (480 mg, n = 6): 6 (100.0) n (%) | Pneumonia (all-grade AE) (480 mg, n = 6): 2 (33.3) n (%) | Pyrexia (all-grade AE) (480 mg, n = 6): 1 (16.7) n (%) | Rash (all-grade AE) (480 mg, n = 6): 1 (16.7) n (%) | Renal failure acute (all-grade AE) (480 mg, n = 6): 2 (33.3) n (%) | Stomatitis (all-grade AE) (480 mg, n = 6): 3 (50.0) n (%) | Vision blurred (all-grade AE) (480 mg, n = 6): 3 (50.0) n (%) | Vomiting (all-grade AE) (480 mg, n = 6): 2 (33.3) n (%) | Patients in whom AZD1208 was discontinued as a result of SAEs and AEs (700 mg (lung infection, GBS, Escherichia spp. sepsis)): 3 n | Abdominal pain (all-grade AE) (700 mg, n = 7): 3 (42.9) n (%) | Asthenia (all-grade AE) (700 mg, n = 7): 1 (14.3) n (%) | Chills (all-grade AE) (700 mg, n = 7): 1 (14.3) n (%) | Cough (all-grade AE) (700 mg, n = 7): 4 (57.1) n (%) | DLT detail, action taken (700 mg, n = 7): GBS, drug permanently discontinued | Decreased appetite (all-grade AE) (700 mg, n = 7): 2 (28.6) n (%) | Dehydration (all-grade AE) (700 mg, n = 7): 0 n (%) | Diarrhoea (all-grade AE) (700 mg, n = 7): 5 (71.4) n (%) | Dyspnoea (all-grade AE) (700 mg, n = 7): 2 (28.6) n (%) | Fatigue (all-grade AE) (700 mg, n = 7): 2 (28.6) n (%) | Febrile neutropenia (all-grade AE) (700 mg, n = 7): 1 (14.3) n (%) | Headache (all-grade AE) (700 mg, n = 7): 1 (14.3) n (%)
